Reference: PubChem BioAssay AID256 (DTP/NCI, 2004)
Several values for one entry are separate records, joined by “and”; a condition that tells them apart may be missing. Equal entries are not always repeated. Toxic doses and inconclusive results are not listed. Rule for the calls: active = survival T/C of 150% or more; inactive = T/C below 125% in these data. Positions of bridges follow the written chain, without caps; N, C: chain ends. Non-standard residues stand in square brackets, D forms with d. Residues, ends and D or L forms follow the SMILES beside them. Chains are numbered I, II in the order given. *: point of attachment. Quinoxaline2carbonyl = O=C(c1cnc2ccccc2n1)*; NMeV = CN[CH](C(=O)O)C(C)C; NMeC = CN[CH](CS)C(=O)O

Test system: CD2F1 mice, L1210 leukemia ip, survival T/C
Assay: NCI In Vivo Anticancer Drug Screen. Data for tumor model L1210 Leukemia (intraperitoneal) in CD2F1 (CDF1) mice
Settings: higher = longer survival
Procedure, shortened: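 Tumor-bearing mice (transplanted tumor) were split into treated and vehicle control groups, and the measured endpoint of each treated group was divided by that of its vehicle controls.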

[1] = endpoint: mean survival time, dose: 50.0 mg/kg/injection, schedule: Q01DX009 (ip), vehicle: saline with Tween-80
[2] = endpoint: mean survival time, dose: 100.0 mg/kg/injection, schedule: Q01DX009 (ip), vehicle: saline with Tween-80
[3] = endpoint: mean survival time, dose: 200.0 mg/kg/injection, schedule: Q01DX009 (ip), vehicle: saline with Tween-80

Measured: T/C

CC(=O)NCCSSCCCCS(=O)O
inactive: endpoint: median survival time, dose: 25.0 mg/kg/injection, schedule: Q01DX009 (ip), vehicle: suspension in saline 93 % of control | endpoint: median survival time, dose: 50.0 mg/kg/injection, schedule: Q01DX009 (ip), vehicle: suspension in saline 100 % of control | endpoint: median survival time, dose: 100.0 mg/kg/injection, schedule: Q01DX009 (ip), vehicle: suspension in saline 96 % of control | endpoint: median survival time, dose: 200.0 mg/kg/injection, schedule: Q01DX009 (ip), vehicle: suspension in saline 100 % of control | endpoint: median survival time, dose: 400.0 mg/kg/injection, schedule: Q01DX009 (ip), vehicle: suspension in saline 114 % of control

NC(=S)c1ccc(OCCCc2ccccc2)cc1
inactive: endpoint: mean survival time, dose: 25.0 mg/kg/injection, schedule: Q01DX009 (ip), vehicle: saline with Tween-80 95 % of control | [1] 95 % of control

CC1NC(=O)C(NC(=O)c2cnc3ccccc3n2)COC(=O)C(C(C)C)N(C)C(=O)C2CSSCC(C(=O)N(C)C(C(C)C)C(=O)OCC(NC(=O)c3cnc4ccccc4n3)C(=O)NC(C)C(=O)N2C)N(C)C1=O (stereo not drawn) (I: Quinoxaline2carbonyl-SA[NMeC][NMeV] / II: Quinoxaline2carbonyl-SA[NMeC][NMeV]; ester I:1-II:C, I:C-II:1; disulfide I:3-II:3; configuration not given here)
inactive: endpoint: mean survival time, dose: 11.2 micrograms/kg/injection, schedule: Q01DX009 (ip), vehicle: Klucel (hydroxypropylcellulose) (HPC) 101 % of control | endpoint: mean survival time, dose: 22.5 micrograms/kg/injection, schedule: Q01DX009 (ip), vehicle: Klucel (hydroxypropylcellulose) (HPC) 103 % of control | endpoint: mean survival time, dose: 45.0 micrograms/kg/injection, schedule: Q01DX009 (ip), vehicle: Klucel (hydroxypropylcellulose) (HPC) 105 % of control | endpoint: mean survival time, dose: 50.0 micrograms/kg/injection, schedule: Q01DX009 (ip), vehicle: other 114 % of control | endpoint: mean survival time, dose: 90.0 micrograms/kg/injection, schedule: Q01DX009 (ip), vehicle: Klucel (hydroxypropylcellulose) (HPC) 105 % of control | endpoint: mean survival time, dose: 180.0 micrograms/kg/injection, schedule: Q01DX009 (ip), vehicle: Klucel (hydroxypropylcellulose) (HPC) 100 % of control | endpoint: mean survival time, dose: 200.0 micrograms/kg/injection, schedule: Q01DX009 (ip), vehicle: other 115 % of control

CC(=O)Oc1ccccc1C(=O)O
inactive: endpoint: mean survival time, dose: 31.3 mg/kg/injection, schedule: Q01DX009 (ip), vehicle: saline sonified 106 % of control | endpoint: mean survival time, dose: 31.3 mg/kg/injection, schedule: Q01DX009 (ip), vehicle: saline with Tween-80 100 % of control | endpoint: mean survival time, dose: 50.0 mg/kg/injection, schedule: Q03HX024 (ip), vehicle: saline 97 % of control | endpoint: mean survival time, dose: 62.5 mg/kg/injection, schedule: Q01DX009 (ip), vehicle: saline sonified 101 % of control | endpoint: mean survival time, dose: 62.5 mg/kg/injection, schedule: Q01DX009 (ip), vehicle: saline with Tween-80 98 % of control | endpoint: mean survival time, dose: 100.0 mg/kg/injection, schedule: Q03HX024 (ip), vehicle: saline 97 % of control | endpoint: mean survival time, dose: 125.0 mg/kg/injection, schedule: Q01DX009 (ip), vehicle: saline sonified 98 % of control | endpoint: mean survival time, dose: 125.0 mg/kg/injection, schedule: Q01DX009 (ip), vehicle: saline with Tween-80 96 % of control and 100 % of control | endpoint: mean survival time, dose: 250.0 mg/kg/injection, schedule: Q01DX009 (ip), vehicle: saline with Tween-80 96 % of control | endpoint: mean survival time, dose: 500.0 mg/kg/injection, schedule: Q01DX001 (ip), vehicle: saline with Tween-80 104 % of control | endpoint: mean survival time, dose: 1000.0 mg/kg/injection, schedule: Q01DX001 (ip), vehicle: saline with Tween-80 104 % of control

CN(N=Nc1ccc(C(N)=O)cc1)C(C)(C)C
inactive: endpoint: mean survival time, dose: 18.75 mg/kg/injection, schedule: Q01DX009 (ip), vehicle: Klucel (hydroxypropylcellulose) (HPC) 97 % of control | endpoint: mean survival time, dose: 37.5 mg/kg/injection, schedule: Q01DX009 (ip), vehicle: Klucel (hydroxypropylcellulose) (HPC) 101 % of control | endpoint: mean survival time, dose: 75.0 mg/kg/injection, schedule: Q01DX009 (ip), vehicle: Klucel (hydroxypropylcellulose) (HPC) 100 % of control | endpoint: mean survival time, dose: 150.0 mg/kg/injection, schedule: Q01DX009 (ip), vehicle: Klucel (hydroxypropylcellulose) (HPC) 106 % of control | endpoint: mean survival time, dose: 300.0 mg/kg/injection, schedule: Q01DX009 (ip), vehicle: Klucel (hydroxypropylcellulose) (HPC) 119 % of control

Cc1ccc(S(=O)(=O)N(C)c2cc([N+](=O)[O-])ccc2Br)cc1
inactive: endpoint: mean survival time, dose: 100.0 mg/kg/injection, schedule: Q04DX002 (ip), vehicle: saline with Tween-80 95 % of control | endpoint: mean survival time, dose: 200.0 mg/kg/injection, schedule: Q04DX002 (ip), vehicle: saline with Tween-80 103 % of control | endpoint: mean survival time, dose: 400.0 mg/kg/injection, schedule: Q04DX002 (ip), vehicle: saline with Tween-80 114 % of control

N#Cc1[nH]nc2ncnc(NC(=O)C(F)(F)F)c12
inactive: endpoint: mean survival time, dose: 6.25 mg/kg/injection, schedule: Q01DX005 (ip), vehicle: water 111 % of control | endpoint: mean survival time, dose: 12.5 mg/kg/injection, schedule: Q01DX005 (ip), vehicle: water 96 % of control | endpoint: mean survival time, dose: 25.0 mg/kg/injection, schedule: Q01DX005 (ip), vehicle: water 107 % of control | endpoint: mean survival time, dose: 50.0 mg/kg/injection, schedule: Q01DX005 (ip), vehicle: water 96 % of control

N#CCC(=O)O
inactive: endpoint: mean survival time, dose: 37.5 mg/kg/injection, schedule: Q04DX003 (ip), vehicle: saline 100 % of control | endpoint: mean survival time, dose: 75.0 mg/kg/injection, schedule: Q04DX003 (ip), vehicle: saline 100 % of control

O=C(N/N=C/Cc1ccccc1)c1cc2ccccc2cc1O
inactive: [2] 101 % of control | [3] 95 % of control | endpoint: mean survival time, dose: 400.0 mg/kg/injection, schedule: Q01DX009 (ip), vehicle: saline with Tween-80 108 % of control

CC1=NCCN1CCN
inactive: endpoint: mean survival time, dose: 100.0 mg/kg/injection, schedule: Q04DX002 (ip), vehicle: saline 91 % of control | endpoint: mean survival time, dose: 200.0 mg/kg/injection, schedule: Q04DX002 (ip), vehicle: saline 109 % of control | endpoint: mean survival time, dose: 400.0 mg/kg/injection, schedule: Q04DX002 (ip), vehicle: saline 113 % of control

N/C(=N\Cl)C(Cl)(Cl)Cl
inactive: endpoint: mean survival time, dose: 12.5 mg/kg/injection, schedule: Q01DX009 (ip), vehicle: saline 105 % of control | endpoint: mean survival time, dose: 25.0 mg/kg/injection, schedule: Q01DX009 (ip), vehicle: saline 103 % of control | endpoint: mean survival time, dose: 50.0 mg/kg/injection, schedule: Q01DX009 (ip), vehicle: saline 109 % of control

CCOC(=O)C1CC2(CC(C(N)=O)C2)C1 (stereo not drawn)
inactive: endpoint: mean survival time, dose: 100.0 mg/kg/injection, schedule: Q01DX001 (ip), vehicle: saline 103 % of control | endpoint: mean survival time, dose: 200.0 mg/kg/injection, schedule: Q01DX001 (ip), vehicle: saline 100 % of control | endpoint: mean survival time, dose: 400.0 mg/kg/injection, schedule: Q01DX001 (ip), vehicle: saline 93 % of control

Nc1ncnc2c1c1cnc(=O)[nH]c1n2C1OC(CO)C(O)C1O (stereo not drawn)
inactive: endpoint: mean survival time, dose: 20.0 mg/kg/injection, schedule: Q01DX005 (ip), vehicle: alkali diluted with water 97 % of control | endpoint: mean survival time, dose: 40.0 mg/kg/injection, schedule: Q01DX005 (ip), vehicle: alkali diluted with water 97 % of control | endpoint: mean survival time, dose: 80.0 mg/kg/injection, schedule: Q01DX005 (ip), vehicle: alkali diluted with water 96 % of control | endpoint: mean survival time, dose: 160.0 mg/kg/injection, schedule: Q01DX005 (ip), vehicle: alkali diluted with water 97 % of control | endpoint: mean survival time, dose: 320.0 mg/kg/injection, schedule: Q01DX005 (ip), vehicle: alkali diluted with water 110 % of control

CCC/C=C(\C)C(C#N)CC (stereo not drawn)
inactive: endpoint: mean survival time, dose: 75.0 mg/kg/injection, schedule: Q01DX001 (ip), vehicle: saline 100 % of control | endpoint: mean survival time, dose: 150.0 mg/kg/injection, schedule: Q01DX001 (ip), vehicle: saline 97 % of control | endpoint: mean survival time, dose: 300.0 mg/kg/injection, schedule: Q01DX001 (ip), vehicle: saline 101 % of control

C=C1C=C(C)CC(C)(C)C1 (tested in a mixture with another compound)
inactive: endpoint: mean survival time, dose: 100.0 mg/kg/injection, schedule: Q01DX009 (ip), vehicle: saline 101 % of control | endpoint: mean survival time, dose: 100.0 mg/kg/injection, schedule: Q04DX003 (ip), vehicle: saline with Tween-80 102 % of control | endpoint: mean survival time, dose: 200.0 mg/kg/injection, schedule: Q01DX009 (ip), vehicle: saline 101 % of control | endpoint: mean survival time, dose: 200.0 mg/kg/injection, schedule: Q04DX003 (ip), vehicle: saline with Tween-80 100 % of control | endpoint: mean survival time, dose: 400.0 mg/kg/injection, schedule: Q01DX009 (ip), vehicle: saline 101 % of control | endpoint: mean survival time, dose: 400.0 mg/kg/injection, schedule: Q04DX003 (ip), vehicle: saline with Tween-80 102 % of control

O=c1oc(-c2cc([N+](=O)[O-])ccc2Cl)nc2ccccc12
inactive: [1] 95 % of control | [2] 90 % of control | [3] 95 % of control
